# Reference: patent publication US9414596B2, “Metalloenzyme inhibitor compounds” (Viamet Pharmaceuticals, Inc., priority 2012, dated 2016)
# Test system: C. albicans
# Assay: Minimum Inhibitory Concentration (MIC) (C. albicans), CLSI M27-A2
# Format: cell-based
# Settings: Candida albicans, 48 h, C. albicans; approximately 48 h at 35±1° C.; MIC = about 50% growth reduction, visual; read-out: Candida MIC Rating
# Method: A. Minimum Inhibitory Concentration (MIC) (C. albicans) Compounds of the present disclosure were assessed for their ability to inhibit the growth of common strains of fungus, C. albicans using a standardized procedure (CLSI M27-A2). Stock solutions of the test compounds and standards were prepared in DMSO at 1,600 μg/mL (C. albicans). Eleven, serial, one-half dilutions of compounds were prepared in 96-well plates in RPMI+MOPS. The assay concentration ranges were 8-0.001 μg/mL (C. albicans). Cell suspensions of C. albicans were prepared and added to each well at concentrations of approximately 3.7×10^3 colony-forming-units per milliliter (cfu/mL). All testing was in duplicate. The inoculated plates were incubated for approximately 48 h at 35±1° C. At the completion of incubation the wells of each plate were evaluated visually for the presence of fungal growth. […] For QC purposes C. krusei isolate ATCC 6258 (4.0×10^3 cfu/mL) was included in the VOR assay.
row,SMILES,MIC
1,"CC(F)(c1ccc(-c2ccc(F)cc2)cn1)[C@](O)(Cn1cnnn1)c1ccc(F)cc1F (stereo in doubt) [Example 50, 2-(2,4-Difluorophenyl)-3-fluoro-3-(5-(4-fluorophenyl)pyridin-2-yl)-1-(1H-tetrazol-1-yl)butan-2-ol]",1.5 to 4 µg/mL
2,"O=P(O)(O)OC(Cn1cnnn1)(c1ccc(F)cc1F)C(F)(F)c1ccc(-c2ccc(OCC(F)(F)F)cc2)cn1 (stereo not shown) [Example 58, 2-(2,4-difluorophenyl)-1,1-difluoro-3-(1H-tetrazol-1-yl)-1-(5-(4-(2,2,2-trifluoroethoxy)phenyl)pyridin-2-yl)propan-2-yl dihydrogen phosphate]",< 0.5 µg/mL

# Same assay, conditions: Candida albicans, 48 h; read-out: Candida MIC Rating
row,SMILES,MIC
1,"OC(Cn1cnnn1)(c1ccc(F)cc1F)C(F)(F)c1ccc(-c2ccc(OCC(F)(F)C(F)(F)F)cc2)cn1 (stereo not shown) [Example 12, 2-(2,4-Difluorophenyl)-1,1-difluoro-1-(5-(4-(2,2,3,3,3-pentafluoropropoxy)phenyl)pyridin-2-yl)-3-(1H-tetrazol-1-yl)propan-2-ol]",< 0.5 µg/mL
2,"OC(Cc1cc[nH]n1)(c1ccc(F)cc1F)C(F)(F)c1ccc(-c2ccc(OC(F)(F)F)cc2)cn1 (stereo not shown) [Example 15, 2-(2,4-Difluorophenyl)-1,1-difluoro-3-(1H-pyrazol-3-yl)-1-(5-(4-(trifluoromethoxy)phenyl)-pyridin-2-yl)propan-2-ol]",< 0.5 µg/mL

# Test system: Septoria tritici (ATCC 26517)
# Assay: Minimum Inhibitory Concentration (MIC) (Septoria tritici), CLSI-based microdilution
# Format: cell-based
# Settings: S. tritici ATCC 26517; seven days at 22° C. in the dark; MIC = 50% reduction in growth, visual
# Method: B. Minimum Inhibitory Concentration (MIC) (Septoria tritici)
# Compounds of the present disclosure were assessed for their ability to inhibit the growth of a common strain of the fungal plant pathogen Septoria tritici (ATCC 26517) using a procedure based on a Clinical and Laboratory Standards Institute (CLSI) microdilution assay protocol for filamentous fungi.
# Stock solutions of the test compounds and standards were prepared in DMSO at 6400 μg/mL. Each stock solution was used to prepare a 2-fold dilution series ranging from 16 to 0.016 μg/mL (total of 11 compound concentrations) in RPMI-1640 (Roswell Park Memorial Institute) medium containing 3-(N-morpholino)propanesulfonic acid (MOPS) buffer and 2% DMSO. A 100 μL aliquot of the dilutions was added to columns 1 (16 μg/mL compound) through 11 (0.016 μg/mL compound) of a 96-well microtiter plate. This format was replicated in a second row of the microtiter plate. Thus, each microtiter plate could include 11 concentrations of four test or control compounds replicated twice. A 100 μL aliquot of RPMI-1640/MOPS/2% DMSO medium was added to column 12 (no compound control) of the microtiter plate.
# A fresh culture of S. tritici was used to prepare a solution of approximately 5×10^4 colony-forming units per milliliter (cfu/mL) in RPMI/MOPS medium without DMSO. A 100 μL aliquot of this solution was added to all 96 wells in the microtiter plate. […] The assay plates were incubated at 22° C. for seven days in the dark without shaking.
row,Septoria MIC Rating,SMILES
1,B (>0.5-1.5),"CC(F)(c1ccc(-c2ccc(OC(F)(F)F)cc2)cn1)C(O)(Cn1cnnn1)c1ccc(F)cc1F (stereo not shown) [Example 47, 2-(2,4-Difluorophenyl)-3-fluoro-1-(1H-tetrazol-1-yl)-3-(5-(4-(trifluoromethoxy)phenyl)-pyridin-2-yl)butan-2-ol]"

# Same assay, conditions: Zymoseptoria tritici, ATCC26517, 168 h, S. tritici ATCC 26517; seven days at 22° C. in the dark; MIC = 50% reduction in growth, visual; read-out: Septoria MIC Rating
row,MIC,SMILES
1,1.5 to 4 µg/mL,"CC(F)(c1ccc(-c2ccc(C(F)(F)F)cc2)cn1)C(O)(Cn1cnnn1)c1ccc(F)cc1F (stereo not shown) [Example 53, 2-(2,4-Difluorophenyl)-3-fluoro-1-(1H-tetrazol-1-yl)-3-(5-(4-(trifluoromethyl)phenyl)pyridin-2-yl)butan-2-ol]"
2,1.5 to 4 µg/mL,"CC(F)(c1ccc(-c2ccc(Cl)cc2)cn1)C(O)(Cn1cnnn1)c1ccc(F)cc1F (stereo not shown) [Example 55, 3-(5-(4-Chlorophenyl)pyridin-2-yl)-2-(2,4-difluorophenyl)-3-fluoro-1-(1H-tetrazol-1-yl)butan-2-ol]"
3,1.5 to 4 µg/mL,"CC(F)(c1ccc(-c2ccc(OCC(F)(F)F)cc2)cn1)C(O)(Cn1cnnn1)c1ccc(F)cc1F (stereo not shown) [Example 57, 2-(2,4-Difluorophenyl)-3-fluoro-1-(1H-tetrazol-1-yl)-3-(5-(4-(2,2,2-trifluoroethoxy)phenyl)pyridin-2-yl)butan-2-ol]"

# Second part, the molecule before the results:
row,SMILES,MIC
1,"OC(Cn1cnnn1)(c1ccc(F)cc1F)C(F)(F)c1ccc(-c2ccc(CC(F)(F)F)cc2)cn1 (stereo not shown) [Example 41, 2-(2,4-Difluorophenyl)-1,1-difluoro-3-(1H-tetrazol-1-yl)-1-(5-(4-(2,2,2-trifluoroethyl)phenyl)pyridin-2-yl)propan-2-ol]",< 0.5 µg/mL
2,"CNC(=O)c1ccc(-c2ccc(C(F)(F)C(O)(Cn3cnnn3)c3ccc(F)cc3F)nc2)cc1 (stereo not shown) [Example 42, 4-(6-(2-(2,4-Difluorophenyl)-1,1-difluoro-2-hydroxy-3-(1H-tetrazol-1-yl)propyl)pyridin-3-yl)-N-methylbenzamide]",> 4 µg/mL
3,"OC(Cn1cnnn1)(c1ccc(F)cc1F)C(F)(F)c1ccc(-c2ccc(OCCC(F)(F)F)cc2)cn1 (stereo not shown) [Example 44, 2-(2,4-Difluorophenyl)-1,1-difluoro-3-(1H-tetrazol-1-yl)-1-(5-(4-(3,3,3-trifluoropropoxy)phenyl)pyridin-2-yl)propan-2-ol]",0.5 to 1.5 µg/mL
4,"OC(Cn1cnnn1)(c1ccc(F)cc1F)C(F)(F)c1ccc(-c2ccc(SCC(F)(F)F)cc2)cn1 (stereo not shown) [Example 45, 2-(2,4-Difluorophenyl)-1,1-difluoro-3-(1H-tetrazol-1-yl)-1-(5-(4-((2,2,2-trifluoroethyl)thio)phenyl)pyridin-2-yl)propan-2-ol]",< 0.5 µg/mL
5,"CC(F)(c1ccc(-c2ccc(OC(F)(F)F)cc2)cn1)C(O)(Cn1cnnn1)c1ccc(F)cc1F (stereo not shown) [Example 46, 2-(2,4-Difluorophenyl)-3-fluoro-1-(1H-tetrazol-1-yl)-3-(5-(4-(trifluoromethoxy)phenyl)-pyridin-2-yl)butan-2-ol]",< 0.5 µg/mL
